The numbers were not newly measured in patent US7109191B2, “Benzazepinone alpha vintegrin receptor antagonists” (Merck & Co., Inc., priority 2001, dated 2006), which cites them from elsewhere.

The data set deals with postmenopausal osteoporotic women. The conditions noted are these: after a median of 22 months of treatment.

As for “hPTH(1–34): human parathyroid hormone 1–34 fragment (SVSEIQLMHNLGKHLNSMERVEWLRKKLQDVHNF; Parathyroid hormone; UniProt P01270 32-65, looked up, fragment)”, the “reduction in nonvertebral fractures” value was 54% and the “reduction in spine fractures” value is at least 65%.
